Experimental data taken from a melting point compilation (Tetko et al.; mined from patent text by program, amines drawn as free bases though some values may be those of a salt).

Compound | melting point
O=C1CCC(c2ccc(-c3ccc(Cl)cc3)o2)O1 (stereo not drawn) | 100 to 101 °C
Cc1ccc(C(=NO)C(F)(F)F)cc1 | 54 to 68 °C
CCCC(=O)CCCCCC(=O)N[C@@H](C)C(=O)OC | 51 to 54 °C
Cn1ncc2c1-c1c(Oc3ccc4c(c3)OCO4)sc(C(=O)NC(C)(C)C)c1CC2 | 171 to 179 °C
c1cc2cc(-c3nnn[nH]3)ccc2[nH]1 | 205 °C
CC(=O)N1c2ccccc2OP1c1ccccc1 (stereo not drawn) | 73 to 75 °C
Cc1cc(NCCNc2cc(C)[nH]n2)n[nH]1 | 255 to 257 °C
NS(=O)(=O)c1ccc(-c2cccc(-c3nc(-c4ccc(C(F)(F)F)cc4)cc(C(F)F)n3)c2)s1 | 240 °C
Cc1noc(C)c1C(=O)Nc1ccc(-n2nc(C(F)(F)F)cc2C(F)(F)F)c(C(F)(F)F)c1 | 61 to 63 °C
O=C(c1cc(C(F)(F)F)nc2c(Cl)cc(Cl)cc12)c1cc(C(F)(F)F)nc2c(Cl)cc(Cl)cc12 | 193 to 194 °C
N#CC1c2ccccc2Sc2ccccc21 | 103 to 105 °C
C=CCc1c(OC(C)=O)c(C)cc2ccc(=O)oc12 | 110 to 111 °C
O=C(CCCCCCCCCCCCC(=O)ON1C(=O)CCC1=O)OCc1ccccc1 | 61.5 to 62.5 °C
CCN(CC)CCOCCC1CCN(C(=O)N2c3cc(Cl)ccc3C(=O)Nc3cccnc32)CC1 | 145 to 146 °C
Cc1nc(C)c(Cl)c(NCc2nccc(OCCCCN3CCNCC3)c2C)n1 | 140 to 144 °C
O=C(O)C(O)(C(F)F)C(F)F | 72.5 to 73.5 °C
O=C(O)C1(c2ccccc2)CCN(CCC(c2ccccc2)(c2ccccc2)c2ccccn2)CC1 | 270 to 275 °C
CC(C)NC(=O)n1cc(Cl)c(-c2cc(Cl)cc(Cl)c2)n1 | 127 °C
CN(C)c1c(CS(=O)(=O)C2=NOC(C)(C)C2)c(C(F)(F)F)nn1-c1ccccc1 | 150 to 151 °C
Cc1ccc(-c2c(Cl)ncn2-c2ccc(S(C)(=O)=O)cc2)cc1Cl | 181 to 182 °C
O=C(O)CN(CCN(CC(=O)O)CC(=O)O)CCN(CC(=O)O)CC(=O)NCCC(O)(P(=O)(O)O)P(=O)(O)O | 145 °C
CCCCCCCCCCCCCCC1COC2(CC(c3ccccc3)NC(c3ccccc3)C2)O1 (stereo not drawn) | 63 to 70 °C
COc1ccc(-c2nc(SCc3cccc(CSc4ncnc5nc[nH]c45)c3)[nH]c2-c2ccc(OC)cc2)cc1 | 129 to 130 °C
N#Cc1ccc(C(O)CCN2CC=C(c3ccc(Cl)cc3)CC2)cc1 (stereo not drawn) | 117 to 118 °C
Cc1nnc(C=Cc2ccccc2OCC2CO2)s1 (stereo not drawn) | 134 to 135 °C

Results, then the molecule that gave them:

melting point | Compound
130 °C | O=C(NCCc1ccccn1)c1ccccc1-c1ccccc1CNS(=O)(=O)c1ccc(F)cc1
106 to 109 °C | CCOC(=O)c1ccc(NCCCc2ccccc2OC)cc1
193 to 194 °C | Cc1sc2nc(-c3ccccc3)c(-c3ccc(S(C)(=O)=O)cc3)n2c1C
278 to 280 °C | Nc1nc2cc(S(=O)(=O)c3ccccc3)ccc2s1
65 to 67 °C | COC(=O)C(C)(C)OCC#Cc1cc(Cl)ccc1NS(=O)(=O)c1ccc(C(C)C)cc1
284 to 285 °C | O=C(O)c1ccc(-c2csc(-c3ccc(Cl)cc3)n2)cc1
142 to 144 °C | COC(=O)[C@@](C#N)(CCN(C)C)C(c1ccccc1OC)c1cccc2ccccc12 (single isomer, unassigned)
124 to 125 °C | COC(=O)CC(NC(=O)c1cccc(OC)c1)c1ccc(OC)c(OC)c1 (stereo not drawn)
179 to 181 °C | CCOC(=O)COc1ccc(C(=O)Nc2ccccc2Sc2ccccc2-c2nnn[nH]2)cc1OC
150 to 152 °C | CC(C)S(=O)(=O)Nc1cc(C(=O)c2ccccc2)ccc1N
263 to 265 °C | CCN1C(=O)C(C)(C)c2cc(-c3nc4ccccc4[nH]3)ccc21
168 to 170 °C | C#CC[C@H](c1nc2cc(Cl)ccc2c(=O)n1Nc1ccccc1)N(CCCN)C(=O)c1cc(F)cc(F)c1F
134 °C | O=C(Oc1ccccc1)C(=O)Oc1ccc2c(c1)C(c1ccccc1)C(=O)O2 (stereo not drawn)
